Drawing on BindingDB's records for doi:10.1186/2191-2858-2-21 (University of The West Indies, 2012), this text covers IC50 for one compound.

One assay addresses T1, Cytochrome P450 1A1 (Homo sapiens, UniProt P04798).
T1 sequence (P04798 whole entry): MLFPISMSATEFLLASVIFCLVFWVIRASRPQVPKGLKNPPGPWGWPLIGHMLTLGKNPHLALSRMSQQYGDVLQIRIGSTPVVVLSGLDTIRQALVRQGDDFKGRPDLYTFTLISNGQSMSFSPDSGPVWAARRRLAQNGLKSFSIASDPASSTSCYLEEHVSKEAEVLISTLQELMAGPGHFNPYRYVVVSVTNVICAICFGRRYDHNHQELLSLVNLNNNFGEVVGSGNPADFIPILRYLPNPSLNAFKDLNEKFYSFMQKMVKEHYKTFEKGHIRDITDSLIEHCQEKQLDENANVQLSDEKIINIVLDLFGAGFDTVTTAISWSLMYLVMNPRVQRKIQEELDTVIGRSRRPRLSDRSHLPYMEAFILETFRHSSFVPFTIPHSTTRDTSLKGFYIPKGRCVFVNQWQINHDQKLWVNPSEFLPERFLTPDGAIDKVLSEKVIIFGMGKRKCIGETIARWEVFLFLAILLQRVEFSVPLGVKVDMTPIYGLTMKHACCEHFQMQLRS
Kind of assay: CYP Inhibition Assay. As to the method: (§1) The test compounds were evaluated for their ability to inhibit the catlytic activity of human CYP1 enzymes by means of high throughput fluorometric detection assay conducted in 96-well microtitre plates.

The next assay addresses Cytochrome P450 2C19 (Homo sapiens, UniProt P33261). The assay can be described thus: CYP Inhibition Assay. As to the method:
as §1

Molecules are shown by their SMILES.

Chain of Cytochrome P450 2C19 (P33261 whole entry): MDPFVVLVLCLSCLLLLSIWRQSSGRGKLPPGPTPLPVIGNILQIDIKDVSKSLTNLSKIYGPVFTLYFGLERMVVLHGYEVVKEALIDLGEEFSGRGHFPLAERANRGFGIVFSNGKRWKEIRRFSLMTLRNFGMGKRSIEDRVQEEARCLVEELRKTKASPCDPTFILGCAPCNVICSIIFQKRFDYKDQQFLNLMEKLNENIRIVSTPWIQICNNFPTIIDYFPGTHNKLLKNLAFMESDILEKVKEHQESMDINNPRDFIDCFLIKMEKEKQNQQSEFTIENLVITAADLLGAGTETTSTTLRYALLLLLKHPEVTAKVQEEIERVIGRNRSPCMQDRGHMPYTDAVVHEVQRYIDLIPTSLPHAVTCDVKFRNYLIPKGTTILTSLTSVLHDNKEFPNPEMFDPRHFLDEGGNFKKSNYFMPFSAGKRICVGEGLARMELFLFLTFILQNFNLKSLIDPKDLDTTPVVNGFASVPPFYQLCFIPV

With `CC(C)(O)CCCC1(C)CC(=O)c2cc(O)c(Br)cc2O1` (configuration not stated) [PBQ1], the IC50 – broadly, the point on the concentration scale where inhibition reaches its midpoint – on Cytochrome P450 1A1 came to 390 nM; at Cytochrome P450 2C19, 80 nM.
